ChEMBL document CHEMBL1133269, “4-Alkylidenyl glutamic acids, potent and selective GluR5 agonists” (Bioorg Med Chem Lett, 2000)
Activity calls are given as the source filed them. No cut-off for these calls is given here.

Key:
[1] = target: Glutamate receptor ionotropic, kainate 1 (Homo sapiens, UniProt P39086); experiment: biochemical
Description: Binding affinity of compound was determined against Ionotropic glutamate receptor ionotropic kainate 1 using cell membranes prepared from HEK293 cells

[2] = Selectivity of compound was determined as the ratio of Ki of Glutamate receptor 6 to that of Glutamate receptor 5
[3] = target: T1, Glutamate receptor ionotropic, kainate 2 (Homo sapiens, UniProt Q13002); experiment: biochemical
Description: Binding affinity of compound was determined against Ionotropic glutamate receptor ionotropic kainate 2 using cell membranes prepared from HEK293 cells

[4] = target: T2, Glutamate receptor ionotropic, kainate 5 (Homo sapiens, UniProt Q16478); experiment: Binding affinity of compound was determined against Glutamate receptor (KA2) using cell membranes prepared from HEK293 cells
T2 sequence (Q16478 whole entry): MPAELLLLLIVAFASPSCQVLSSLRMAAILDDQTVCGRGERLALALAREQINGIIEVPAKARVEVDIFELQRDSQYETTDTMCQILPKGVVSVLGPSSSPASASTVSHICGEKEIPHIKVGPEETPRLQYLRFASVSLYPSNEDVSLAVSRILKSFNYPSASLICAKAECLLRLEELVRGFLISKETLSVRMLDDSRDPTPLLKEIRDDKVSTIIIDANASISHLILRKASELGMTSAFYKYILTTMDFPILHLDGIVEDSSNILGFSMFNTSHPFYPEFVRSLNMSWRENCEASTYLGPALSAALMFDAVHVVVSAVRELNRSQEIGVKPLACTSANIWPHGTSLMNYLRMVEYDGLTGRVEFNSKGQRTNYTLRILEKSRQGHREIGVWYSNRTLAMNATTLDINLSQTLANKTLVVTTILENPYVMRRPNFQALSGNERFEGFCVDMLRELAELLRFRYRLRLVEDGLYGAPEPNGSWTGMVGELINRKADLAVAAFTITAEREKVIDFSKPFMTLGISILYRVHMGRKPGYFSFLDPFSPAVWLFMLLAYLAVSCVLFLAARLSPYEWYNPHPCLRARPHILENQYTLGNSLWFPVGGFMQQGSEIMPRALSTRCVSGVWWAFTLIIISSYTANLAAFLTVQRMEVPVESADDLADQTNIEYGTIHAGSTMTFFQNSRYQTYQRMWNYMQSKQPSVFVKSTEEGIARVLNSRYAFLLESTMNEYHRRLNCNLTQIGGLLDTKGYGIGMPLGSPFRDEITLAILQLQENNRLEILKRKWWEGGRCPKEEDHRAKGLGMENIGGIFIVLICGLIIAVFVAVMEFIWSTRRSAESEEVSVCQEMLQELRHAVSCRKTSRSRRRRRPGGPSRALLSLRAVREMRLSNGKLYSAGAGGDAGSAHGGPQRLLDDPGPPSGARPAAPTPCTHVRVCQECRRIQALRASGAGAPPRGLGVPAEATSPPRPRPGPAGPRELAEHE

[5] = target: Glutamate receptor 4 (Homo sapiens, UniProt P48058); experiment: biochemical
Description: Binding affinity of compound was determined against Ionotropic glutamate receptor AMPA 4 using cell membranes prepared from HEK293 cells

[6] = target: Glutamate receptor 1 (Homo sapiens, UniProt P42261); experiment: biochemical
Description: Binding affinity of compound was determined against Ionotropic glutamate receptor AMPA 1 using cell membranes prepared from HEK293 cells

[7] = target: Glutamate receptor 2 (Homo sapiens, UniProt P42262); experiment: Binding affinity of compound was determined against Ionotropic glutamate receptor AMPA 2 using cell membranes prepared from HEK293 cells
[8] = target: T1, Glutamate receptor ionotropic, kainate 2; experiment: Compound was tested for agonistic activity at Glutamate receptor 6 using HEK293 cells; format: functional, cell-based
[9] = target: T1, Glutamate receptor ionotropic, kainate 2; experiment: Agonistic activity of compound on Glutamate receptor 6 using cell membranes prepared from HEK293 cells was expressed as percentage Rmax; ne means no effect; format: functional, cell-based
[10] = target: T2, Glutamate receptor ionotropic, kainate 5; experiment: Binding affinity of compound was determined against KA2 using cell membranes prepared from HEK293 cells

Glutamate receptor ionotropic, kainate 1, sequence (P39086 whole entry): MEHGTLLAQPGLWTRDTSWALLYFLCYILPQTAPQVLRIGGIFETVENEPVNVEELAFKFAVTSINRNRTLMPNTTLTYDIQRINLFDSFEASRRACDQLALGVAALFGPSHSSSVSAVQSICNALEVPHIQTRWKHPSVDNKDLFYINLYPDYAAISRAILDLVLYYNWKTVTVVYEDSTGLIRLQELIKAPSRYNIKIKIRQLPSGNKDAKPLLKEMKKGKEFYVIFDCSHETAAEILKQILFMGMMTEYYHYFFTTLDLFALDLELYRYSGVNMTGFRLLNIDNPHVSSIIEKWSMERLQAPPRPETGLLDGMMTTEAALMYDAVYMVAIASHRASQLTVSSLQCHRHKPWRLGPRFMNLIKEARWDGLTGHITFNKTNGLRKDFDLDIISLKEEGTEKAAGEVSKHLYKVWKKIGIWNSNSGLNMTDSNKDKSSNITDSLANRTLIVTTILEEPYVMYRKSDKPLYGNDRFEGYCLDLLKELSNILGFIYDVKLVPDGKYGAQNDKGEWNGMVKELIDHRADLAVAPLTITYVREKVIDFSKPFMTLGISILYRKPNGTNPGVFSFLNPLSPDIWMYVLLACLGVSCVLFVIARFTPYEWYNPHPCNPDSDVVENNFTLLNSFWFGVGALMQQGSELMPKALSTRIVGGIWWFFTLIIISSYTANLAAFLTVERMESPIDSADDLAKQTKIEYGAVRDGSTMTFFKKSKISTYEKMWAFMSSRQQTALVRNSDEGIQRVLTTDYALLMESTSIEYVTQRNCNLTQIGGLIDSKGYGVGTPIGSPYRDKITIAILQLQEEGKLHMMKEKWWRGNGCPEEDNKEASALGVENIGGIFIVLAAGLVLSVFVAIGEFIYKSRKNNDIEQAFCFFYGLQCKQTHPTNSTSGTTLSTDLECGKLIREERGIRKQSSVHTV
Glutamate receptor 1, sequence (P42261 whole entry): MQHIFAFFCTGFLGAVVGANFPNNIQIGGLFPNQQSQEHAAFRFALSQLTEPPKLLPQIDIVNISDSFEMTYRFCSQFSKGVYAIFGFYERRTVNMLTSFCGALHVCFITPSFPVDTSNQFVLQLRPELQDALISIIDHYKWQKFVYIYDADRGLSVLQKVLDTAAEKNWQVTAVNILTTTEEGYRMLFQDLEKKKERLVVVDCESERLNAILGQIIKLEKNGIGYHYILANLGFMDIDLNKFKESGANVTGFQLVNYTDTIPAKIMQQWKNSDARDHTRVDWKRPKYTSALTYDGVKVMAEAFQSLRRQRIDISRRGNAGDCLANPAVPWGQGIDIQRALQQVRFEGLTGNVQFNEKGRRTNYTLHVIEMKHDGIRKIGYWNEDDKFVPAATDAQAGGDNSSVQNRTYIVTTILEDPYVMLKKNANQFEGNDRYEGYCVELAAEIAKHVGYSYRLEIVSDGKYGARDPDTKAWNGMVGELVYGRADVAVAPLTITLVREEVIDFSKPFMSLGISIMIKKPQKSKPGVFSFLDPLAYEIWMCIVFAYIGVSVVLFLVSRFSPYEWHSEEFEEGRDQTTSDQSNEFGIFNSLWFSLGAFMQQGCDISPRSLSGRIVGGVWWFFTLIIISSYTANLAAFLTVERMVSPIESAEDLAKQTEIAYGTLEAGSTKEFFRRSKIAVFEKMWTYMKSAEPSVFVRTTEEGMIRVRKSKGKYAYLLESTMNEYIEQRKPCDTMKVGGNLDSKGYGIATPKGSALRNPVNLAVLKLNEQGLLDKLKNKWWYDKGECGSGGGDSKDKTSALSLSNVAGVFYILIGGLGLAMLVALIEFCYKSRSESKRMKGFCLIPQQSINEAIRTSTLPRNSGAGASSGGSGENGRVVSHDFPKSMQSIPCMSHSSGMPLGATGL
Glutamate receptor 4, sequence (P48058 whole entry): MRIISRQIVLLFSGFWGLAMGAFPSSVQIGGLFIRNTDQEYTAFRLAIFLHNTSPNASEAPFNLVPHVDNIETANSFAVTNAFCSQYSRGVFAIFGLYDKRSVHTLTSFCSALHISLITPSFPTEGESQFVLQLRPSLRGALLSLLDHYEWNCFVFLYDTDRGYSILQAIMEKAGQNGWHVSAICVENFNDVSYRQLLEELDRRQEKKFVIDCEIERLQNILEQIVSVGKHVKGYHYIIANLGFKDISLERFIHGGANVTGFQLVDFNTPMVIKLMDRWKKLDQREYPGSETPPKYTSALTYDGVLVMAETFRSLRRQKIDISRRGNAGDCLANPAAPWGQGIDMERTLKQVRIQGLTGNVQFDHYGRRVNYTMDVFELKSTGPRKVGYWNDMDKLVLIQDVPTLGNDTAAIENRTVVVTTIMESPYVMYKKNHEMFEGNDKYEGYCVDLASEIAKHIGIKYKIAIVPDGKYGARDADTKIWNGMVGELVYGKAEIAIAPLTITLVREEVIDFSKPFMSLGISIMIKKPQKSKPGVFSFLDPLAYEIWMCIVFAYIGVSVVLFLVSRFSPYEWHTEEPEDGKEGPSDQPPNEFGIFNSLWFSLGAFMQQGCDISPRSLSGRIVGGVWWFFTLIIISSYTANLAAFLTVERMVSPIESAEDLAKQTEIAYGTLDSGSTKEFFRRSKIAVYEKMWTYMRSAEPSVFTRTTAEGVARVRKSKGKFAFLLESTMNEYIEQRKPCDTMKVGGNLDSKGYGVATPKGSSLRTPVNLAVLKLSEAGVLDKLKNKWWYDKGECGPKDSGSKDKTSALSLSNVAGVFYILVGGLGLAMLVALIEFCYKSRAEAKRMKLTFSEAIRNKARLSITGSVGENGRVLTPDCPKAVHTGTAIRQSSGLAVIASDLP
Glutamate receptor 2, sequence (P42262 whole entry): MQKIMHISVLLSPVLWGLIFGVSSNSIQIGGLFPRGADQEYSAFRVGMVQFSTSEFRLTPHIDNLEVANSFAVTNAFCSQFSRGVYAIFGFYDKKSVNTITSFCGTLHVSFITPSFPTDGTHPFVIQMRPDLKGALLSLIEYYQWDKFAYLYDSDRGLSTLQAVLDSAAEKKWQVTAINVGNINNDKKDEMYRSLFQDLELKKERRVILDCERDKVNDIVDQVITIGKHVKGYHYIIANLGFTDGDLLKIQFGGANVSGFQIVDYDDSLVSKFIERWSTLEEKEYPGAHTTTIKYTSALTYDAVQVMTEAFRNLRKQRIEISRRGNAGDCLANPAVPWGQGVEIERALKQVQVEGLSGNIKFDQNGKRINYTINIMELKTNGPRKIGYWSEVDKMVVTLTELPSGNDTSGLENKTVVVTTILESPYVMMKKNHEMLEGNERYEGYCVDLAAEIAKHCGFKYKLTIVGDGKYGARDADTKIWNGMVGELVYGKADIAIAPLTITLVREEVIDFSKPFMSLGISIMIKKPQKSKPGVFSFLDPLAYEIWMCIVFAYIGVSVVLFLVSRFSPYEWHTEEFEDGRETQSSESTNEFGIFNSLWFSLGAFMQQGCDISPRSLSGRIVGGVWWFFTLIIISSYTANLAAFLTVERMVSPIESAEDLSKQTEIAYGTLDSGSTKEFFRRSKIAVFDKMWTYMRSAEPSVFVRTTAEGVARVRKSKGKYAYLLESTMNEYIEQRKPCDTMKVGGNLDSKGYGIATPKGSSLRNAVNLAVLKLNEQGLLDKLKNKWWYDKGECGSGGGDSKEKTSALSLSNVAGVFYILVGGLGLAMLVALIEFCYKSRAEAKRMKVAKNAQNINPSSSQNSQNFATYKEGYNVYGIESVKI
T1 sequence (Q13002 whole entry): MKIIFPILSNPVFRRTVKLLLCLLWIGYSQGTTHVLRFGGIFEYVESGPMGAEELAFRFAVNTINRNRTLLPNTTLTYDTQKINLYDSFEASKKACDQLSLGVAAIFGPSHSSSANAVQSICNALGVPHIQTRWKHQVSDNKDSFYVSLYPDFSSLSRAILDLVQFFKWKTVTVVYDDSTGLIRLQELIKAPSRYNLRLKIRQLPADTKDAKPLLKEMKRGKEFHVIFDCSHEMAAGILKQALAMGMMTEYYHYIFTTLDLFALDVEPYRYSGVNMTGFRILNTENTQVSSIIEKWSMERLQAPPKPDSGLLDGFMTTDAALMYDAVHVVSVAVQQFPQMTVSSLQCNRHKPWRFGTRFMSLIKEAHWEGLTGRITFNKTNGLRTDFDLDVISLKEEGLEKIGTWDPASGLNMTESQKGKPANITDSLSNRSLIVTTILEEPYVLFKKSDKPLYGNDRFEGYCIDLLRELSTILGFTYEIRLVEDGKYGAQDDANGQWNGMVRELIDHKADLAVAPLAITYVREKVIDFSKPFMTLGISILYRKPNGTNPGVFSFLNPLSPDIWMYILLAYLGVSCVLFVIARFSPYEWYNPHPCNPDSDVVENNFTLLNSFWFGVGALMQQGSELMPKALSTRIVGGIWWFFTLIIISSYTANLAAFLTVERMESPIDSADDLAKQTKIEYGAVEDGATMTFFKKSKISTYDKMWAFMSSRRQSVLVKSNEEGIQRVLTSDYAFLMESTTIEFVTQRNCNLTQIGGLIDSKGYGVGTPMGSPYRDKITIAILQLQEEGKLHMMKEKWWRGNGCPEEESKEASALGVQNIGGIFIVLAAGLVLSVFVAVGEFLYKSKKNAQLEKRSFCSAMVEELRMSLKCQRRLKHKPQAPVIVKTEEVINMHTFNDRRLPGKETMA

Structure (SMILES) | Ki [1] | Ratio [2] | Ki [3] | further results
CC(C)=C(C[C@H](N)C(=O)O)C(=O)O | 13.9 µM | > 28.8 | > 400 µM | –
N[C@@H](CC(C(=O)O)=C1CCCCC1)C(=O)O | 5.13 µM | 49.7 | 255 µM | –
N[C@@H](C/C(=C\c1ccc(Cl)cc1)C(=O)O)C(=O)O | – | – | 193 µM | –
N[C@@H](C/C(=C/CCC(c1ccccc1)c1ccccc1)C(=O)O)C(=O)O | > 1 µM | 10 | > 10 µM | –
N[C@@H](C[C@@H](C/C=C/c1ccc2ccccc2c1)C(=O)O)C(=O)O | – | – | – | Ki [6]: > 10 µM; Ki [7]: > 10 µM
N[C@@H](C/C(=C\C1CCCC1)C(=O)O)C(=O)O | – | – | 87.6 µM | –
C=C(C)[C@H]1CN[C@H](C(=O)O)[C@H]1CC(=O)O [KAINIC ACID] | – | – | – | Ki [4]: 0.08 µM
CCC(CC)=C(C[C@H](N)C(=O)O)C(=O)O | – | – | 207 µM | Ki [4]: 21.4 µM; Ki [5]: 4.71 µM; Ki [6]: > 100 µM; Ki [7]: 281 µM
N[C@@H](C/C(=C\CCC(c1ccccc1)c1ccccc1)C(=O)O)C(=O)O | > 1 µM | 100 | > 100 µM | –
N[C@@H](CC(C(=O)O)=C1CCC1)C(=O)O | – | – | > 100 µM | –
N[C@@H](CC(C(=O)O)=C1CCCC1)C(=O)O | – | – | > 100 µM | EC50 [8]: > 100 µM; Ki [4]: 10 µM; Ki [5]: 0.533 µM; Ki [6]: 1.1 µM; Rmax [9]: inactive; Ki [7]: 3.68 µM
CC1(C)CCC/C1=C(\C[C@H](N)C(=O)O)C(=O)O | 3.62 µM | 12.8 | 46.3 µM | –
N[C@@H](C/C(=C\CCc1ccccc1)C(=O)O)C(=O)O | – | – | 205 µM | –
N[C@@H](C/C(=C\C1CCCCC1)C(=O)O)C(=O)O | 6.06 µM | > 16.5 | > 100 µM | –
CC1(C)CCC/C1=C(/C[C@H](N)C(=O)O)C(=O)O | 0.236 µM | > 424 | > 100 µM | –

Now from value to molecule, other results behind:

Ki [1] | Ratio [2] | Ki [3] | Structure (SMILES) | further results
– | – | > 500 µM | CC(C)/C=C(/C[C@H](N)C(=O)O)C(=O)O | Ki [4]: 82.2 µM; Ki [5]: 10.3 µM; Ki [6]: 113 µM; Ki [7]: 44.9 µM
– | – | 16.3 µM | C/C=C/C=C(/C[C@H](N)C(=O)O)C(=O)O | –
– | – | 57.2 µM | CCC/C=C(/C[C@H](N)C(=O)O)C(=O)O | –
– | – | > 100 µM | CC(C)(C)/C=C(\C[C@H](N)C(=O)O)C(=O)O | –
2.2 µM | 1.14 | 2.5 µM | C/C=C(/C[C@H](N)C(=O)O)C(=O)O | –
– | – | 125 µM | CCCC/C=C(/C[C@H](N)C(=O)O)C(=O)O | –
– | – | 0.45 µM | C=C(C[C@H](N)C(=O)O)C(=O)O | –
– | – | 18 µM | CC/C=C(/C[C@H](N)C(=O)O)C(=O)O | EC50 [8]: > 300 µM
– | – | 82.5 µM | CC(C)/C=C(\C[C@H](N)C(=O)O)C(=O)O | Ki [10]: 7.5 µM; Ki [5]: 5.6 µM; Ki [6]: 0.7 µM; Ki [7]: 3.7 µM
– | – | > 100 µM | N[C@@H](C/C(=C\C=C\c1ccccc1)C(=O)O)C(=O)O | –
– | – | 634 µM | CC(C)C/C=C(\C[C@H](N)C(=O)O)C(=O)O | –
